Results from US20250243171A1, “QUINAZOLINE COMPOUNDS FOR TREATMENT OF DISEASE” (Arthrosi Therapeutics, Inc., priority 2021, published 2025).

Tests used:
Assay in all cases: EC50 assay: Ba/F3 stable cell proliferation (CCK-8, 72 h)
Format in all cases: cell-based
Ba/F3 stable cells [1] = target: T1, Ba/F3 stable cells (Homo sapiens, UniProt P04626, DUP772-775, cells depend on it); conditions: Ba/F3-HER2 A775-G776insYVMA cells
T1 construct: EC50 Ba/F3-HER2 A775-G776insYVMA; other: Ba/F3-HER2 A775-G776insYVMA cells, 72 h, CCK-8
How it was run: (§1)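 Ba/F3 stable cells were seeded at 4,000 cells/90 μL/well in 96-well plates and held 2 h at 37° C. in 5% CO2, then given 10 μL of serially titrated compound (0.1% DMSO final). After 72 h at 37° C., CCK-8 reagent was added for 4 hours and absorbance read at 450 nm to derive EC50.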

Ba/F3 stable cells [2] = target: T2, Ba/F3 stable cells (Homo sapiens, UniProt P00533, DUP771-773, cells depend on it); conditions: Ba/F3-EGFR H773-V774insNPH cells
T2 construct: EC50 Ba/F3-EGFR H773-V774insNPH; other: Ba/F3-EGFR H773-V774insNPH cells, 72 h, CCK-8
How it was run: as §1

Ba/F3 stable cells [3] = target: T3, Ba/F3 stable cells (Homo sapiens, UniProt P00533, INS763FQEA, cells depend on it); conditions: Ba/F3-EGFR A763-Y764insFQEA cells
T3 construct: EC50 Ba/F3-EGFR A763-Y764insFQEA; other: Ba/F3-EGFR A763-Y764insFQEA cells, 72 h, CCK-8
How it was run: as §1

Ba/F3 stable cells [4] = target: T4, Ba/F3 stable cells (Homo sapiens, UniProt P00533, DUP768-770, cells depend on it); conditions: Ba/F3-EGFR D770-N771insSVD cells
T4 construct: EC50 Ba/F3-EGFR D770-N771insSVD; other: Ba/F3-EGFR D770-N771insSVD cells, 72 h, CCK-8
How it was run: as §1

Ba/F3 stable cells [5] = target: T5, Ba/F3 stable cells (Homo sapiens, UniProt P00533, DUP767-769, cells depend on it); conditions: Ba/F3-EGFR V769-D770insASV cells
T5 construct: EC50 Ba/F3-EGFR V769-D770insASV; other: Ba/F3-EGFR V769-D770insASV cells, 72 h, CCK-8
How it was run: as §1

Ba/F3 stable cells [6] = target: T6, Ba/F3 stable cells (Homo sapiens, UniProt P00533, T790M/L858R, cells depend on it); conditions: Ba/F3-EGFR L858R-T790M cells
T6 construct: EC50 Ba/F3-EGFR L858R-T790M; other: Ba/F3-EGFR L858R-T790M cells, 72 h, CCK-8
How it was run: as §1

T5 sequence (P00533 with tags, fused parts or gaps DUP767-769): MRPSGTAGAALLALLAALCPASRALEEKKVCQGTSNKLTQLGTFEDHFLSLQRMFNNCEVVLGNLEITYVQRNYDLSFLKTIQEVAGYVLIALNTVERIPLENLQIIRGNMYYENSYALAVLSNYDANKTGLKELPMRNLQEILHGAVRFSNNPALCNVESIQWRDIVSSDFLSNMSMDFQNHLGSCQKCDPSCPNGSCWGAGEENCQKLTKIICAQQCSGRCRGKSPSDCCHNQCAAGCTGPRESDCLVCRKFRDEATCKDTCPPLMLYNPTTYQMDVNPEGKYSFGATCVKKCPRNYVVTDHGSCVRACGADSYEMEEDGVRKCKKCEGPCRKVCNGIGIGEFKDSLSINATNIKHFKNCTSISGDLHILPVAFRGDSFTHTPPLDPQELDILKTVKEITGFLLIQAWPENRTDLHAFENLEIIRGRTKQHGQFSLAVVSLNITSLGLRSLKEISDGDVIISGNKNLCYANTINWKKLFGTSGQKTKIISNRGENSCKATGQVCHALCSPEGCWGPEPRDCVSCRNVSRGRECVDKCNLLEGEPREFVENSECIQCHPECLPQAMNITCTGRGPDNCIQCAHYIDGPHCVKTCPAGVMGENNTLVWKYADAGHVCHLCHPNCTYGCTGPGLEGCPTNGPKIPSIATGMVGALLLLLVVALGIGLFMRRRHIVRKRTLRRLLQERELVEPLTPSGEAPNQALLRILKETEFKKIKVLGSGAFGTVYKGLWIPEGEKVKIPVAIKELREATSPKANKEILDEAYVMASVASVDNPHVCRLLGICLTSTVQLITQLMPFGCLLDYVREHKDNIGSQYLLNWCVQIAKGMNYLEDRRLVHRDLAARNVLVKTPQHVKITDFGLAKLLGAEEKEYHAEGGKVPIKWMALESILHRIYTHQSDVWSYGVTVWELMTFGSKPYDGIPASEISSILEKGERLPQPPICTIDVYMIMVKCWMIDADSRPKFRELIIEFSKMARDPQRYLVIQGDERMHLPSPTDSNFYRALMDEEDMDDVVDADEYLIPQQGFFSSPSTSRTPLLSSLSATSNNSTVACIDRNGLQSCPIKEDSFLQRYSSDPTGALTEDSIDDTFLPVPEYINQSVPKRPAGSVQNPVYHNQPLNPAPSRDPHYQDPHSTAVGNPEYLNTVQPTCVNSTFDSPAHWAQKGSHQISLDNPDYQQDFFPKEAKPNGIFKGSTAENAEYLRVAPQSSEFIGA
T6 sequence (P00533 whole entry T790M/L858R): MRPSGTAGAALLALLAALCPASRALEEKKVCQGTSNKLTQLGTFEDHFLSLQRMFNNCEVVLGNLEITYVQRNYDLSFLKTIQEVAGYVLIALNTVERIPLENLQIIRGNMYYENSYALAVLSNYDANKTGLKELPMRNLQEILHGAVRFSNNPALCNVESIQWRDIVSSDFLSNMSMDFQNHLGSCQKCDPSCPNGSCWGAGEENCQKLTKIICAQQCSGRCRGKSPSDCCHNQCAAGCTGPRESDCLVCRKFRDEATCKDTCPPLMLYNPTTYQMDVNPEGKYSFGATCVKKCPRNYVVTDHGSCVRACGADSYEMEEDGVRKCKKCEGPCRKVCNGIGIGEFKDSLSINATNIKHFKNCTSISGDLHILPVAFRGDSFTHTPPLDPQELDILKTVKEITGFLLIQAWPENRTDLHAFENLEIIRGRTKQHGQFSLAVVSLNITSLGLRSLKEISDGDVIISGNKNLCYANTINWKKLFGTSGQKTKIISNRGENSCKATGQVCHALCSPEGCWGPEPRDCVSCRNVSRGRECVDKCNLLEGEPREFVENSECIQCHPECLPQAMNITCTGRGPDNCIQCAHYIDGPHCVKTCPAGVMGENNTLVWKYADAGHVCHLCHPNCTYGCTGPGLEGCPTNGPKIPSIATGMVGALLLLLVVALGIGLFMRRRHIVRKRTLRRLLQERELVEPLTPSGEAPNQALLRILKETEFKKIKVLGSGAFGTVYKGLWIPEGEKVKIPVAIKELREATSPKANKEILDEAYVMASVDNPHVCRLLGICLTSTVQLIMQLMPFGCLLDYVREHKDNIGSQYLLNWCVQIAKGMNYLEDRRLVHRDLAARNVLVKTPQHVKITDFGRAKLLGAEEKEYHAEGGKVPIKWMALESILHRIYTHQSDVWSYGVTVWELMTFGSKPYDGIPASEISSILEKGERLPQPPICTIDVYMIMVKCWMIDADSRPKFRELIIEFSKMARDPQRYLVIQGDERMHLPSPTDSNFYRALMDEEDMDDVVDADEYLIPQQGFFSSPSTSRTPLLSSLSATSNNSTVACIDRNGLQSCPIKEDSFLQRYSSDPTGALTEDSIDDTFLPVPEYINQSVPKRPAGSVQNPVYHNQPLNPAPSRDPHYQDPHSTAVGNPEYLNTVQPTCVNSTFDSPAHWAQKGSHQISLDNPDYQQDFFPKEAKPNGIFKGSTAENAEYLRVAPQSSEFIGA
T1 sequence (P04626 with tags, fused parts or gaps DUP772-775): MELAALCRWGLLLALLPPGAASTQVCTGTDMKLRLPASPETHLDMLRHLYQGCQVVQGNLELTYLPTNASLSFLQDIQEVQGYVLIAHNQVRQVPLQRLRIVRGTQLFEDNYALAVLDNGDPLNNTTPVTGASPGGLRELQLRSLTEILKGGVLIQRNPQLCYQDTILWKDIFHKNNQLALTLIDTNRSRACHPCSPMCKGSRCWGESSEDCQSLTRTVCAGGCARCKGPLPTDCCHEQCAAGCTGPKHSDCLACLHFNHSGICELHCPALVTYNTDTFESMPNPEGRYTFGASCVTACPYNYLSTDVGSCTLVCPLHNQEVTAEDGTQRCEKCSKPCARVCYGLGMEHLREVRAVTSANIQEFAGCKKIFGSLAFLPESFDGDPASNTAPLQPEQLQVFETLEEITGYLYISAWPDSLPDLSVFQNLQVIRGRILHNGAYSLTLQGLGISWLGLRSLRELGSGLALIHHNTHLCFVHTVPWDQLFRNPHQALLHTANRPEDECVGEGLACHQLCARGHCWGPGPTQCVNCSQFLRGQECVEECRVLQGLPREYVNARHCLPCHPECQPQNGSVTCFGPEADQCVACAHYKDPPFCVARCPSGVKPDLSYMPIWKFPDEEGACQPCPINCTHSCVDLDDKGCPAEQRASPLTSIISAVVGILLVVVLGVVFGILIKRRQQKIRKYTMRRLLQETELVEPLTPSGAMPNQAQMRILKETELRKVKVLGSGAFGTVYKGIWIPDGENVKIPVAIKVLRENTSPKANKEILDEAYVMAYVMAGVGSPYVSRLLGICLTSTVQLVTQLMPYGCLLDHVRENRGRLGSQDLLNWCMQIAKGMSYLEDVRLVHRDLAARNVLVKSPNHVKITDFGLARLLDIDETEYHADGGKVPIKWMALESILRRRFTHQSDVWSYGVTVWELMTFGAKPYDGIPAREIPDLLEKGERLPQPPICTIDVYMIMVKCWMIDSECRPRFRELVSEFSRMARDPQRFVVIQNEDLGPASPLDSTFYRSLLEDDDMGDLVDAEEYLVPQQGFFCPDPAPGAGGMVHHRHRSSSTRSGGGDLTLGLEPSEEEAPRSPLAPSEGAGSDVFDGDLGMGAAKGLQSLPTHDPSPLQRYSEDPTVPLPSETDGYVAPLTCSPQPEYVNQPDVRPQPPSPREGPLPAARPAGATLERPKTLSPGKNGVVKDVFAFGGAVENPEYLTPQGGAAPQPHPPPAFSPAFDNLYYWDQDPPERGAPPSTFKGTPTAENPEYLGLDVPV
T2 sequence (P00533 with tags, fused parts or gaps DUP771-773): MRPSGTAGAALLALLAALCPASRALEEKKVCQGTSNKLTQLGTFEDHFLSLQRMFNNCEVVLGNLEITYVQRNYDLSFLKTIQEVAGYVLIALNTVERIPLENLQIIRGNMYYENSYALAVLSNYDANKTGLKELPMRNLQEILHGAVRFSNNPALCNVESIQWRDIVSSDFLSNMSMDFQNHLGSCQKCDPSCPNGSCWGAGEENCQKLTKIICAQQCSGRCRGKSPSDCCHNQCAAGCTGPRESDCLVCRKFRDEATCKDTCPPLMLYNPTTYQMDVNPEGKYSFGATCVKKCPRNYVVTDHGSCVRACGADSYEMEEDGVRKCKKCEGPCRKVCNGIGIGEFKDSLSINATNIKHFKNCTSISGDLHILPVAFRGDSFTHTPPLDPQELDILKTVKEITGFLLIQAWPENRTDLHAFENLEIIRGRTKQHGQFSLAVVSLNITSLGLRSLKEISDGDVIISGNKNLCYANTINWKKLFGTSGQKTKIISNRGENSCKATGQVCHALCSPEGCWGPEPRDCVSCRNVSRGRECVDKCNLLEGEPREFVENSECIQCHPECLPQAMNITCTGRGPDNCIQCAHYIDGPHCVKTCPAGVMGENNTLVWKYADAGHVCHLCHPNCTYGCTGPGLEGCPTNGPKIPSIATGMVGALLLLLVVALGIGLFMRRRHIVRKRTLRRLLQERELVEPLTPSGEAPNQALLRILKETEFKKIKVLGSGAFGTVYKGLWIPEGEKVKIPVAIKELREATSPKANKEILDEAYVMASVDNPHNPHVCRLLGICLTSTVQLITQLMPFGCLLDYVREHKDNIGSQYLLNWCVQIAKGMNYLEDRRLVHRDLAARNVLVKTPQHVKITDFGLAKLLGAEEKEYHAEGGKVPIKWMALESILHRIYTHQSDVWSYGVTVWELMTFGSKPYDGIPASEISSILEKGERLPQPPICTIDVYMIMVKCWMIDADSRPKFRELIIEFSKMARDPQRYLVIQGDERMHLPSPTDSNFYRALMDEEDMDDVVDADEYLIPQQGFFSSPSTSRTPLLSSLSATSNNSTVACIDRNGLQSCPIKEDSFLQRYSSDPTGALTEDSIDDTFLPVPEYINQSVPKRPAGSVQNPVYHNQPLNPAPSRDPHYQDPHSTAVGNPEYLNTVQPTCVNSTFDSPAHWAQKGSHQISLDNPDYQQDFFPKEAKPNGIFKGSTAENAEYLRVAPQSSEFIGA

| SMILES | EC50 (Ba/F3 stable cells [1]) [nM] | EC50 (Ba/F3 stable cells [2]) [nM] | EC50 (Ba/F3 stable cells [3]) [nM] | EC50 (Ba/F3 stable cells [4]) [nM] | EC50 (Ba/F3 stable cells [5]) [nM] | EC50 (Ba/F3 stable cells [6]) [nM] |
| --- | --- | --- | --- | --- | --- | --- |
| C=CC(=O)N1CCC(Oc2c(OC)cc3ncnc4c3c2C=CN4c2ccc(Cl)c(Cl)c2F)CC1 [Compound 218, 1-(4-((4-(3,4-dichloro-2-fluorophenyl)-8-methoxy-4H-pyrido[2,3,4-de]quinazolin-7-yl)oxy)piperidin-1-yl)prop-2-en-1-one] | > 1000 | ≤ 200 | ≤ 200 | 200 to 1000 | ≤ 200 | 200 to 1000 |
| C=CS(=O)(=O)N1CCC(Oc2c(OC)cc3ncnc4c3c2NC(=O)N4c2ccc(Cl)c(Cl)c2F)CC1 [Compound 225, 3-(3,4-dichloro-2-fluorophenyl)-8-methoxy-9-((1-(vinylsulfonyl)piperidin-4-yl)oxy)-1H-pyrimido[4,5,6-de]quinazolin-2(3H)-one] | > 1000 | ≤ 200 | ≤ 200 | ≤ 200 | ≤ 200 | ≤ 200 |
| C=CC(=O)NC1COc2c(-c3cnc4ccccc4c3)c3c(N)ncnc3n2C1 (stereo not drawn) [Compound 228, N-(4-amino-5-(quinolin-3-yl)-8,9-dihydro-7H-pyrimido[5′,4′:4,5]pyrrolo[2,1-b][1,3]oxazin-8-yl)acrylamide] | > 1000 | > 1000 | ≤ 200 | > 1000 | 200 to 1000 | ≤ 200 |

Other lines, results leading:

| EC50 (Ba/F3 stable cells [1]) [nM] | EC50 (Ba/F3 stable cells [2]) [nM] | EC50 (Ba/F3 stable cells [3]) [nM] | EC50 (Ba/F3 stable cells [4]) [nM] | EC50 (Ba/F3 stable cells [5]) [nM] | EC50 (Ba/F3 stable cells [6]) [nM] | SMILES |
| --- | --- | --- | --- | --- | --- | --- |
| ≤ 200 | ≤ 200 | ≤ 200 | 200 to 1000 | 200 to 1000 | ≤ 200 | C=CS(=O)(=O)N1CCC(Oc2c(OC)cc3ncnc4c3c2NC(=O)N4c2ccc(Cl)c(Cl)c2)CC1 [Compound 226, 3-(3,4-dichlorophenyl)-8-methoxy-9-((1-(vinylsulfonyl)piperidin-4-yl)oxy)-1H-pyrimido[4,5,6-de]quinazolin-2(3H)-one] |
| 200 to 1000 | ≤ 200 | ≤ 200 | 200 to 1000 | 200 to 1000 | ≤ 200 | C#CC(=O)N1CCC(Oc2c(OC)cc3ncnc4c3c2NC(=O)N4c2ccc(Cl)c(Cl)c2)CC1 [Compound 227, 3-(3,4-dichlorophenyl)-8-methoxy-9-((1-propioloylpiperidin-4-yl)oxy)-1H-pyrimido[4,5,6-de]quinazolin-2(3H)-one] |
